# Several values for one entry are separate records, joined by “and”; a condition that tells them apart may be missing. Identical values can stand only once.
# Key:
# [1] = system: CAPN1, CDC42, CFL1, IGF1, WASF1, and WASL in Caco2 cells; assay: Cell motility-related gene expression (RT2 profiler PCR / qRT-PCR) in Caco2 cells; type: cell-based, human; settings: same concentration for UA and KU
# Procedure: The RT² Profiler™ PCR Array (330231, SA Biosciences, Qiagen, Courtaboeuf, France) was used to examine the expression patterns of 84 genes involved in human cell motility as previouslydescribed. The manufacturer’s instructions were strictly followed. Gene expression levels were analyzed using the web-based software ‘RT2 Profiler PCR Array Data Analysis version 3.5′. Six cell motility-related genes, including CAPN1, CDC42, CFL1, IGF1, WASF1, and WASL, were selected as candidates.
# Quantitative RT-PCR (qRT-PCR) was performed as previously described. Briefly, total RNA ([…]) isolated from UA- or KU-treated Caco2 cells using RNAiso Plus (TaKaRa, Otsu, Shiga 520–2193, Japan) was used to synthesize cDNA using a M-MLV reverse transcriptase kit (Invitrogen, Carlsbad, CA, USA) and SYBR green (Enzynomics, Seoul, Korea). […]
# [2] = Hydrolytic stability at pH 4–7; type: physicochemical; settings: pH range of 4–7, room temperature
# Procedure: To determine whether the salt form of UA improved its bioavailability, the amount and concentration of usnate in the tumors, liver, and plasma of CT26 syngeneic tumor xenograft-bearing mice were measured by LC-MS/MS analysis. UA or KU was administered orally at a dose of 30 mg/kg at 7 days after CT26 cell inoculation, and the tumor tissues, liver tissues, and plasma of mice were collected after 16 h. […] Assuming that the density of tumor tissue is 0.1 to 1.0 mL/g, the concentration of usnate in tumor tissue is about 1.51 to 15.1 μM. Similarly, the amounts of usnate detected in liver tissues were 0.2788 ± 0.034 nmol/g of tissue for UA and 2.5789 ± 0.402 nmol/g of tissue for KU administered mice (Fig. 2C); the plasma concentrations of usnate were 0.181 ± 0.016 μM for UA and 1.690 ± 0.122 μM for KU administered mice (Fig. 2D).
# Supplementary Figure 3. The stability of UA at the pH range of 4–7 in room temperature. (A) UA stability at pH 7.0. (B) UA stability at pH 6.8. (A) UA stability at pH 6.0. (A) UA stability at pH 4.5
# [3] = system: Twist, Snail, and Slug protein in Caco2 cells; assay: Western blotting of EMT markers in Caco2 cells; type: cell-based, human; settings: 24 h
# Procedure: Cells treated with UA or KU for 24 h were washed twice with ice-cold PBS and lysed in lysisbuffer. Antibodies against E-cadherin (61018, BD Biosciences, San Diego, CA, USA), N-cadherin (610921, BD Biosciences), Snail/Slug (ab180714, Abcam, Cambridge, MA, USA), Twist (ab49254, Abcam), PARP (9542, Cell Signaling), Caspase-3 (9662, Cell Signaling), α-Tubulin (2125, Cell Signaling), and ZEB2 (HPA003456, Sigma) were detected with horseradish peroxidase-conjugated secondary antibody (Thermo Fisher Scientific, Waltham, MA, USA) with the use of Immobilon Western Chemiluminescent HRP Substrate Kit (Merck Millipore, Billerica, MA, USA) and luminescence imaging (Image Quant LAS 4000 mini). Multi-Gauge 3.0 was used to measure bands, and relative density was calculated based on the density of the α-tubulin bands in each sample. Expression of values were as arbitrary densitometric units corresponding to signal intensity.
# [4] = Water solubility by μSol Method; type: physicochemical; settings: 25 °C, pH 7.4, μSol Method with DMSO stock solution
# [5] = system: Caco2, HCT116, and CT26 cells; assay: Cell invasion assay (Boyden chamber); type: cell-based, human; mouse (CT26); settings: 5 μM, 24 h, vs control
# Procedure: Invasion assays were performed in Boyden chambers (Corning, New York, USA)[16]. A 120 μL Cells (2 × 10^6) suspended in medium (DMEM containing 0.2% BSA dissolved in PBS) treated with or without UA or KU were seeded in the upper transwell chamber (Corning, New York, USA) coated with gelatin. Then, fibronectin (10 μg/mL) was added into the lower chamber medium (400 μL) as a chemotactic agent.Then invaded cells adhering to the underneath of upper chamber were fixed and stained with the Diff Quik kit (Sysmex) after 24 h of incubation. The quantitation of the cells were performed under an upright microscope (5 fields/chamber). Each invasion assay was repeated in three independent experiments.
# [6] = Usnate distribution by LC-MS/MS after oral administration in CT26 syngeneic mouse tumor xenograft model; type: in vivo; settings: 30 mg/kg oral, 16 h after dosing; CT26 xenograft mice
# Procedure: Stock solutions (10 mM) of UA or KU were prepared by dissolution in DMSO. Stock standard solutions were stored at −20 °C. A working standard solution was prepared by dilution of the stock standard solution with a mixture of acetonitrile-water (1:1, v/v). The working standard solution was serially diluted to prepare a concentration series of 0.975, 3.9, 15.6, 62.5, 250, 1000, and 4000 nM in 50% acetonitrile.
# Skin tumor xenografts were established using CT26 cells. After 7 days of inoculation and gross tumor formation, UA or KU at 30 mg/kg was administered orally, and tumor, liver, and plasma samples were collected after 16 h (n = 9 each). Mouse tumor and liver samples were homogenized in four volumes of ice-cold deionized water. Plasma and homogenized tissue samples were prepared for analysis in a 96-well cluster tube plate by protein precipitation. A volume of 30 µL of each sample was transferred to eight-well tube strips placed in an 8 × 12 rack (VWR, Emeryville, CA, USA). Four volumes of ice-cold extraction solution (acetonitrile) containing 4-methylumbelliferone (4-MUF, internal standard) were added and vortexed for 10 min. After sonication for 30 min, samples were placed on ice for 1 h. The 96-well cluster tube plate was centrifuged at 1000 × g for 10 min, and the supernatant was analyzed by LC-MS/MS. Standard samples were prepared in the same manner using a blank matrix.
# Samples were analyzed with the Prominence UPLC system (Shimadzu, Japan) equipped with an API 3200 QTRAP™ LC-MS/MS system (Applied Biosystems, Foster City, CA, USA). Sample volumes of 10 μL were injected into an Aquity HSS UPLC C18 column (2.5 × 100 mm, 1.8 µm i.d.; Waters, Milford, MA, USA) and maintained at 30 °C. The column was pre-equilibrated in 100% v/v solvent A (deionized water containing 0.1% v/v formic acid)/0% v/v solvent B (acetonitrile containing 0.1% v/v formic acid) at a flow rate of 0.3 mL/min. […] The samples were analyzed via multiple reaction monitoring. […]
# [7] = system: colorectal cancer cells (HCT116, DLD1, SW480, HT29, SW620, Caco2, COLO320, CT26); assay: Cell viability assay (MTT); type: cell-based, human; mouse (CT26); settings: 48 h, 12.5–100 μM
# Procedure: The human colorectal cancer cell lines HCT116, DLD1, SW480, HT29, SW620, Caco2, and COLO320, and the mouse colorectal cancer cell line CT26, were used in this study. Cells were cultured in DMEM supplemented with 10% fetal bovine serum and 1% Penicillin-Streptomycin solution under a humidified 5% CO2 atmosphere at 37 °C in an incubator.
# Colorectal cancer cell growth and survival were detected with the colorimetric quantification of 3-(4,5-dimethylthiazol-2-yl)-2,5-diphenyltetrazolium bromide using the MTT assay. Briefly, cells were seeded and cultured in 96-well plates (2.5 × 10^3 cells/well), and treated with UA or KU for 48 h. After DMSO dissolution, the absorbance at 540 nm was determined using a microplate reader with Gen 5 (2.03.1) software (BioTek Eon, VT, USA).
# [8] = system: CT26 cells expressing firefly luciferase (CT26-Fluc); assay: Orthotopic liver metastasis model (CT26-Fluc, intrasplenic injection); type: in vivo, BALB/c mice; settings: 5 or 10 mg/kg intraperitoneal
# Procedure: Five-week-old male BALB/c mice with pathogen-free condition were obtained from Orient Company (Seongnam, Korea). According to the Guiding Principles in the Care and Use of Animals (DHEW publication, NIH 80–23), the handling of animals and all in vivo experiments were performed. The Chonnam National University Medical School Research Institutional Animal Care and Use Committee approved the experimental protocol.
# A syngeneic mouse model of colorectal cancer metastasis to the liver was established by infusion of tumor cells into the portal system via intrasplenic injection. […] For optical live imaging in this model, a splenectomy was performed immediately after inoculation of tumor cell, and the firefly luciferase activity was analyzed at several time points with the Xenogen system. […] Weight of tumor was determined by subtracting the average weight of liver of normal mice (n = 4) from the weight of total tumor-bearing liver with addition of the weight of total extrahepatic tumors. […] To evaluate inhibition of tumor growth, mice were analyzed every 7 days with the use of optical imaging. […] Metastatic tumor nodules in the liver with a diameter of >1.0 mm were counted using a microscope, and a metastasis score was assigned based on nodule size as follows: 0 (no gross metastasis), 1 (tumor size >1 mm), and 10 (tumor size >5 mm). […]
# [9] = system: N-cadherin, Snail, Twist, Slug, and ZEB2 mRNA in Caco2 cells; assay: qRT-PCR of EMT markers in Caco2 cells; type: cell-based, human; settings: 5 μM
# Procedure: Quantitative RT-PCR (qRT-PCR) was performed as previously described. Briefly, total RNA ([…]) isolated from UA- or KU-treated Caco2 cells using RNAiso Plus (TaKaRa, Otsu, Shiga 520–2193, Japan) was used to synthesize cDNA using a M-MLV reverse transcriptase kit (Invitrogen, Carlsbad, CA, USA) and SYBR green (Enzynomics, Seoul, Korea). The primers used for real-time PCR were as follows: E-cadherin (forward) 5′-[…]-3′ and (reverse) 5′-[…]-3′; N-cadherin (forward) 5′-[…]-3′ and (reverse) 5′-[…]-3′; Snail (forward) 5′-[…]-3′ and (reverse) 5′-tgggagacacatcggtcga-3′; Twist (forward) 5′-cgggagtccgcagtctta-3′ and (reverse) 5′-[…]-3′; Slug (forward) 5′-[…]-3′ and (reverse) 5′-[…]-3′; ZEB1(forward) 5′-atgacacaggaaaggaagg-3′ and (reverse) 5′-agcagtgtcttgttgtag-3′; ZEB2 (forward) 5′-caagaggcgcaaacaagcc-3′ and (reverse) 5′-[…]-3′; CAPN1 (forward) 5′-[…]-3′ and (reverse) 5′-[…]-3′; CDC42 (forward) 5′-[…]-3′ and (reverse) 5′-[…]-3′; CFL1 (forward) 5′-caaggatgccatcaagaa-3′ and (reverse) 5′-atccttagcctcctcgta-3′; IGF1 (forward) 5′-[…]-3′ and (reverse) 5′-[…]-3′; WASF1 (forward) 5′-[…]-3′ and (reverse) 5′-[…]-3′; WASL (forward) 5′-[…]-3′ and (reverse) 5′-[…]-3′; and GAPDH (forward) 5′-[…]-3′ and (reverse) 5′-[…]-3′. qRT-PCR reactions and analyses were performed using CFX (Bio-Rad, Hercules, CA, USA).
substance,measurement,setting,value
Usnic acid [UA],"expression of cell motility-related genes CAPN1, CDC42, CFL1, IGF1, WASF1, and WASL",[1],only CFL1 and IGF1 gene expression levels were decreased
same,hydrolytic stability,[2],consistent
same,"protein level of Twist, Snail, and Slug",[3],downregulated
same,water solubility,[4],52.2 ± 2.90 μM and 17.7 ± 0.20 μg/mL
same,number of invaded cells / invasion,[5],lower in the UA-treated groups than in the control groups
same,amount of usnate in liver tissues,[6],0.2788 ± 0.034 nmol/g of tissue
same,amount of usnate in tumor tissues,[6],undetectable
same,plasma concentration of usnate,[6],181 ± 16 nM
same,cytotoxic activity (cell viability),[7],showed cytotoxic activity in all the tested colorectal cancer cells
same,inhibitory effect on metastasis in vivo,[8],no significant inhibitory effect on metastasis
same,metastasis score,"[8]; six or ten times within 2 weeks, vs control",did not detect a statistically significant difference
same,"mRNA levels of N-cadherin, Snail, Twist, Slug, and ZEB2",[9],significantly decreased

# Reference: PMC6214985, “Potassium usnate, a water-soluble usnic acid salt, shows enhanced bioavailability and inhibits invasion and metastasis in colorectal cancer” (Scientific Reports, 2018)
